Results published in ChEMBL document CHEMBL1201862, “PubChem BioAssay data set” (2004).
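96-well plates; 48 h exposure; 5 concentrations. Endpoints by linear interpolation between flanking doses. Not reached: highest tested concentration assigned. Abbreviation: GI50, concentration required for 50% inhibition of growth.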 The source made the active and inactive calls. Cut-off read from the data, not from the text of the source: active = GI50 up to about 1.1 µM and inactive = higher.

Legend:
Assay in all cases: NCI tumour cell line growth inhibition, 48 h
[1] = system: HOP-62
[2] = system: KM12
[3] = system: NCI/ADR-RES
[4] = system: RXF 393
[5] = system: ACHN
[6] = system: MDA-MB-231
[7] = system: PC-3
[8] = system: TK-10
[9] = system: Malme-3M
[10] = system: EKVX
[11] = system: SF-268
[12] = system: UO-31
[13] = system: CCRF-CEM
[14] = system: SK-MEL-28
[15] = system: HCT-116
[16] = system: MOLT-4
[17] = system: HL-60
[18] = system: RPMI-8226
[19] = system: SN12C
[20] = system: UACC-62
[21] = system: BT-549
[22] = system: K562
[23] = system: NCI-H226
[24] = system: Hs-578T
[25] = system: MDA-N
[26] = system: A498
[27] = system: HT-29
[28] = system: U-251
[29] = system: IGROV-1
[30] = system: A549
[31] = system: UACC-257
[32] = system: OVCAR-3
[33] = system: SF-295
[34] = system: COLO 205
[35] = system: MDA-MB-435
[36] = system: NCI-H23
[37] = system: DU-145
[38] = system: SW-620
[39] = system: MCF7
[40] = system: SK-MEL-5
[41] = system: OVCAR-8
[42] = system: LOX IMVI
[43] = system: SK-OV-3
[44] = system: HOP-92
[45] = system: SNB-75
[46] = system: T47D
[47] = system: M14
[48] = system: NCI-H522
[49] = system: OVCAR-5
[50] = system: 786-0
[51] = system: CAKI-1
[52] = system: SK-MEL-2
[53] = system: HCC 2998
[54] = system: SNB-19
[55] = system: OVCAR-4
[56] = system: HCT-15
[57] = system: SR
[58] = system: NCI-H460

C#CCOC(=O)C(N)C(C)O (stereo not drawn)
GI50 [1]: > 100 µM (inactive) | GI50 [2]: > 100 µM (inactive) | GI50 [3]: > 100 µM (inactive) | GI50 [4]: > 100 µM (inactive) | GI50 [5]: > 100 µM (inactive) | GI50 [6]: > 100 µM (inactive) | GI50 [7]: > 100 µM (inactive) | GI50 [8]: > 100 µM (inactive) | GI50 [9]: > 100 µM (inactive) | GI50 [10]: > 100 µM (inactive) | GI50 [11]: > 100 µM (inactive) | GI50 [12]: > 100 µM (inactive) | GI50 [13]: > 100 µM (inactive) | GI50 [14]: > 100 µM (inactive) | GI50 [15]: > 100 µM (inactive) | GI50 [16]: > 100 µM (inactive) | GI50 [17]: > 100 µM (inactive) | GI50 [18]: > 100 µM (inactive) | GI50 [19]: > 100 µM (inactive) | GI50 [20]: > 100 µM (inactive) | GI50 [21]: > 100 µM (inactive) | GI50 [22]: > 100 µM (inactive) | GI50 [23]: > 100 µM (inactive) | GI50 [24]: > 100 µM (inactive) | GI50 [25]: > 100 µM (inactive) | GI50 [26]: > 100 µM (inactive) | GI50 [27]: > 100 µM (inactive) | GI50 [28]: > 100 µM (inactive) | GI50 [29]: > 100 µM (inactive) | GI50 [30]: > 100 µM (inactive) | GI50 [31]: > 100 µM (inactive) | GI50 [32]: > 100 µM (inactive) | GI50 [33]: > 100 µM (inactive) | GI50 [34]: > 100 µM (inactive) | GI50 [35]: > 100 µM (inactive) | GI50 [36]: > 100 µM (inactive) | GI50 [37]: > 100 µM (inactive) | GI50 [38]: > 100 µM (inactive) | GI50 [39]: > 100 µM (inactive) | GI50 [40]: > 100 µM (inactive) | GI50 [41]: > 100 µM (inactive) | GI50 [42]: > 100 µM (inactive) | GI50 [43]: > 100 µM (inactive) | GI50 [44]: > 100 µM (inactive) | GI50 [45]: > 100 µM (inactive) | GI50 [46]: > 100 µM (inactive) | GI50 [47]: > 100 µM (inactive) | GI50 [48]: > 100 µM (inactive) | GI50 [49]: > 100 µM (inactive) | GI50 [50]: > 100 µM (inactive) | GI50 [51]: > 100 µM (inactive) | GI50 [52]: > 100 µM (inactive)

C=CC(C)(C)n1cc(C2=C(O)C(=O)C(c3c(CC=C(C)C)[nH]c4ccccc34)=C(O)C2=O)c2ccccc21
GI50 [1]: 1.25 µM (inactive) | GI50 [2]: 0.979 µM (active) | GI50 [3]: 2.47 µM (inactive) | GI50 [4]: 1.74 µM (inactive) | GI50 [53]: 1.04 µM (active) | GI50 [5]: 1.56 µM (inactive) | GI50 [6]: 1.81 µM (inactive) | GI50 [7]: 1.73 µM (inactive) | GI50 [54]: 1.96 µM (inactive) | GI50 [9]: 1.82 µM (inactive) | GI50 [10]: 1.91 µM (inactive) | GI50 [11]: 0.548 µM (active) | GI50 [55]: 2.19 µM (inactive) | GI50 [12]: 0.67 µM (active) | GI50 [13]: 1.92 µM (inactive) | GI50 [14]: 0.575 µM (active) | GI50 [15]: 1.94 µM (inactive) | GI50 [16]: 1.6 µM (inactive) | GI50 [17]: 1.86 µM (inactive) | GI50 [18]: 1.64 µM (inactive) | GI50 [19]: 1.57 µM (inactive) | GI50 [20]: 0.34 µM (active) | GI50 [21]: 0.571 µM (active) | GI50 [22]: 0.476 µM (active) | GI50 [23]: 1.53 µM (inactive) | GI50 [24]: 1.43 µM (inactive) | GI50 [25]: 0.718 µM (active) | GI50 [26]: 1.57 µM (inactive) | GI50 [27]: 2.28 µM (inactive) | GI50 [28]: 1.1 µM (active) | GI50 [29]: 0.879 µM (active) | GI50 [30]: 0.624 µM (active) | GI50 [31]: 2.88 µM (inactive) | GI50 [32]: 1.32 µM (inactive) | GI50 [33]: 1.58 µM (inactive) | GI50 [34]: 1.71 µM (inactive) | GI50 [35]: 0.711 µM (active) | GI50 [36]: 3.03 µM (inactive) | GI50 [37]: 1.55 µM (inactive) | GI50 [38]: 3.43 µM (inactive) | GI50 [40]: 1.87 µM (inactive) | GI50 [41]: 1.3 µM (inactive) | GI50 [42]: 0.998 µM (active) | GI50 [43]: 2.14 µM (inactive) | GI50 [44]: 1.46 µM (inactive) | GI50 [45]: 0.796 µM (active) | GI50 [46]: 2.47 µM (inactive) | GI50 [47]: 1.34 µM (inactive) | GI50 [56]: 1.62 µM | GI50 [48]: 2.3 µM (inactive) | GI50 [49]: 2.89 µM (inactive) | GI50 [50]: 2 µM (inactive) | GI50 [57]: 0.745 µM (active) | GI50 [58]: 1.52 µM (inactive) | GI50 [51]: 2.39 µM (inactive) | GI50 [52]: 1.59 µM (inactive)
